Measurements from US20060074073A1, “Therapeutic combinations comprising poly (ADP-ribose) polymerases inhibitor” (AGOURON PHARMACEUTICALS, INC., priority 2004, published 2006).
Marks after values point to notes of the source that are not given here.

Experiments:
[1] = system: human H460 NSCLC cells; assay: In vitro chemosensitization of standard chemotherapeutic agents; format: cell-based
[2] = system: PARP; assay: Tumor PARP catalytic activity, 32P-NAD incorporation in SW620 tumor homogenates of treated animals; format: in vivo, mice; details: temozolomide alone, oral gavage
Procedure: Tumours were excised and were snap frozen in liquid nitrogen and stored at −80° C. until homogenised for analysis. The specimen was defrosted on ice and the wet weight documented. The tissue was homogenised using a Pro 2000 instrument (Pro Scientific Inc, Monroe, Conn., USA) in 3 volumes (i.e. 1 mg plus 3 μl isotonic buffer −7 mM Hepes, 26 mM KCl, 0.1 mM dextran, 0.4 mM EGTA, 0.5 mM MgCl2, 45 mM sucrose, pH 7.8), giving a homogenate with an overall dilution of 1 in 4. The homogenate was kept on ice throughout the process, and homogenisation was performed in 10 second bursts to prevent undue warming of the sample. Prior to assay the samples were further diluted with isotonic buffer where necessary to give a final dilution of 1 in 40 for [^32P]NAD incorporation assay or 1 in 1000 for immunoblot aaasy.
Briefly, cells were suspended in hypotonic buffer (9 mM HEPES pH 7.8, 4.5% (v/v) dextran, 4.5 mM MgCl2 and 5 mM DTT) at 1.5×10^7/ml on ice for 30 minutes then 9 vol of isotonic buffer (40 mM HEPES pH 7.8, 130 mM KCl, 4% (v/v) dextran, 2 mM EGTA, 2.3 mM MgCl2, 225 mM sucrose and 2.5 mM DTT) was added. The reaction was started by adding 300 μl cells to 100 μl 300 μM NAD^+ containing [^32P]-NAD^+ (Amersham, UK), and terminated by the addition of 2 ml ice cold 10% (w/v) TCA+10% (w/v) sodium pyrophosphate. After 30 min on ice the precipitated ^32P—labelled ADP-ribose polymers were filtered on Whatman GC/C filters (Whatman Intemational Ltd, Kent, UK), washed 5 times with 1% (v/v) TCA/1% (v/v) sodium pyrophosphate, dried and counted. PARP inhibitory IC50 values were calculated from computer-fitted curves (GraphPad Software, Inc., San Diego, Calif.).
Tumour homogenates were assayed in a similar manner; however, the homogenisation process introduces sufficient DNA damage to maximally stimulate PARP activity and oligonucleotide was not therefore required. Results were expressed in terms of pmol PAR former per mg tumour.
Preparation of Tumour/Tissue Samples • 1. The frozen tumour samples are weighed. • 2. 3 volumes (i.e. 3 μl solution added for each 1 mg tissue) of isotonic buffer plus DTT is added to the tumour sample. This is stored on ice until and during homogenisation. • 3. The sample is homogenised on ice within a Class II cabinet for 10-second bursts until no detectable macroscopic pieces of tissue are visible. • 4. Sufficient volume of the homogenate is diluted 1 in 10 with isotonic buffer plus DTT to provide an overall dilution of 1 in 40 from the original sample. A final volume of 3 ml is sufficient for triplicate sampling and a subsequent protein assay. • 5. The diluted homogenate is stored on ice and assayed within one hour as below.
PARP Assay of Tumour/Tissue Samples • 1. ^32P 600 μM NAD solution is prepared fresh on the day of experiment as detailed above. Oligonucleotide stock is removed from storage and defrosted. • 2. Water bath is warmed to 26° C. and set to agitate at 70 oscillations per minute.
3. Reaction test tubes are set up as per table A for the QC samples and as per table B for the homogenate.
• 4. Each QC sample is assayed in triplicate, with T0, +oligo and −oligo samples ×3. (Total of 9 tubes per sample, if low cell counts −oligo samples are omitted.) Homogenates are also assayed in triplicate, with T0 and reaction samples ×3. (Total 6 tubes per sample). • 5. 2 ml ice cold 10% TCA+10% NaPPi is added to the T0 tubes prior to addition of homogenate or cells, to correct for non-specific binding of radio-label to the filter. • 6. Reaction test tubes homogenates and QC cells are warmed in the water bath to 26° C. for 7 minutes. • 7. Each preparation is vortexed briefly and the reaction is started by adding 300 μl of this to each reaction tube. • 8. The reaction is stopped exactly 6 minutes after addition of homogenate by adding 2 ml of ice cold 10% TCA+10% NaPPi and vortexing. • 9. The tube is then incubated on ice for at least one hour prior to filtration. • 10. […]

[3] = system: SW620 xenograft; assay: In vivo antitumor efficacy with irinotecan, SW620 xenograft; set-up: species or system mice
Excerpt: In no combination study was antagonism observed.

[4] = GI50 single agent/GI50 agent +0.4 μM compound of formula 1 as glucuronate salt
[5] = GI50 single agent/GI50 agent +0.4 μM Compound I (phosphate salt) instead of glucuronate salt

Compound | PF50 (H460) [1, 4] | further results
O=c1[nH]cc(F)c(=O)[nH]1 [5-Fluorouracil] | 0.92 | 
Nc1nc2nc[nH]c2c(=S)[nH]1 [6-thioguanine] | 1.1 | 
N.N.[Cl][Pt][Cl] [Cisplatin] | 1.2 | 
COc1cccc2c1C(=O)c1c(O)c3c(c(O)c1C2=O)C[C@@](O)(C(=O)CO)C[C@@H]3O[C@H]1C[C@H](N)[C@H](O)[C@H](C)O1 [Doxorubicin] | 1.1 | 
COc1cc([C@@H]2c3cc4c(cc3[C@@H](O[C@@H]3O[C@@H]5CO[C@@H](C)O[C@H]5[C@H](O)[C@H]3O)[C@H]3COC(=O)[C@H]23)OCO4)cc(OC)c1O [Etoposide] |  | PF50 (H460) [1, 5]: 0.75^b
Nc1ccn([C@@H]2O[C@H](CO)[C@@H](O)C2(F)F)c(=O)n1 [Gemcitabine] | 1.2 | 
O=C1[O][Pt]2([NH][C@@H]3CCCC[C@H]3[NH]2)[O]C1=O [Oxaliplatin] |  | PF50 (H460) [1, 5]: 0.98^b
CC(=O)O[C@H]1C(=O)[C@@]2(C)[C@H]([C@H](OC(=O)c3ccccc3)[C@]3(O)C[C@H](OC(=O)[C@H](O)[C@@H](NC(=O)c4ccccc4)c4ccccc4)C(C)=C1C3(C)C)[C@]1(OC(C)=O)CO[C@@H]1C[C@@H]2O [Paclitaxel] | 0.77 | 
CCc1c2c(nc3ccc(O)cc13)-c1cc3c(c(=O)n1C2)COC(=O)[C@]3(O)CC [SN-38] | 2.2 | 
Cn1nnc2c(C(N)=O)ncn2c1=O [Temozolomide, reference compound] |  | PARP Activity (%) [2]: 100%; PF50 (H460) [1, 5]: 3.7^b
CC[C@@]1(O)C(=O)OCc2c1cc1n(c2=O)Cc2cc3c(CN(C)C)c(O)ccc3nc2-1 [Topotecan] | 1.6 | 
CCc1c2c(nc3ccc(OC(=O)N4CCC(N5CCCCC5)CC4)cc13)-c1cc3c(c(=O)n1C2)COC(=O)[C@]3(O)CC [irinotecan, reference compound] |  | inhibition of SW620 tumor growth as single agent ([3]; irinotecan 25 mg/kg, QW×3 IP): did not significantly inhibit SW620 tumor growth; toxicity ([3]; irinotecan single agent groups): No significant toxicity
